Assay results taken from patent US9969752B2, “Inhibitors of HIF prolyl hydroxylase” (MERCK SHARP & DOHME CORP., priority 2014, dated 2018).
Where two headings read alike, the source gives them in different places.

Molecular target: T1, Human HIF-PHD2 (Homo sapiens, UniProt Q9GZT9)
T1 construct: FLAG-tagged full length PHD2 expressed in and purified from baculovirus-infected Sf9 cells; FLAG; made in house; host or cells: baculovirus-infected Sf9 cells
Assay: Inhibition of the hydroxylation of a HIF peptide by PHD2 (time resolved fluorescence, 384-well)
Assay type: biochemical
Details: 0.2 μM 2-oxoglutarate, 0.5 μM HIF-1α peptide, 45 minutes at room temperature
Method: To each well of a 384-well plate, 1 μL of test compounds in DMSO (final concentration ranging from 0.3 nM to 10 uM) were added into 20 μl of assay buffer (50 mM Tris pH 7.4/0.01% Tween-20/0.1 mg/ml bovine serum albumin/10 μM ferrous sulfate/1 mM sodium ascorbate/20 μg/ml catalase) containing 0.15 μg/ml FLAG-tagged full length PHD2 expressed in and purified from baculovirus-infected Sf9 cells. After a 5 min preincubation at room temperature, the enzymatic reactions were initiated by the addition of 4 μL of substrates {final concentrations of 0.2 μM 2-oxoglutarate and 0.5 μM HIF-1α peptide biotinyl-[…] […] After incubation for 45 minutes at room temperature, the reactions were terminated by the addition of a 25 μL quench/detection mix to a final concentration of 1 mM ortho-phenanthroline, 0.1 mM EDTA, 0.5 nM anti-(His)6 LANCE reagent (Perkin-Elmer Life Sciences), 100 nM AF647-labeled streptavidin (Invitrogen), and 2 μg/ml (His)6-VHL complex {S. Tan Protein Expr. Purif.

[1] = FLAG-tagged full length PHD2, read-out: MS m/z (M + 1)+ and human HIF-PHD2 IC50
[2] = FLAG-tagged full length PHD2, read-out: Human HIF-PHD2 IC50

T1 sequence (Q9GZT9 whole entry): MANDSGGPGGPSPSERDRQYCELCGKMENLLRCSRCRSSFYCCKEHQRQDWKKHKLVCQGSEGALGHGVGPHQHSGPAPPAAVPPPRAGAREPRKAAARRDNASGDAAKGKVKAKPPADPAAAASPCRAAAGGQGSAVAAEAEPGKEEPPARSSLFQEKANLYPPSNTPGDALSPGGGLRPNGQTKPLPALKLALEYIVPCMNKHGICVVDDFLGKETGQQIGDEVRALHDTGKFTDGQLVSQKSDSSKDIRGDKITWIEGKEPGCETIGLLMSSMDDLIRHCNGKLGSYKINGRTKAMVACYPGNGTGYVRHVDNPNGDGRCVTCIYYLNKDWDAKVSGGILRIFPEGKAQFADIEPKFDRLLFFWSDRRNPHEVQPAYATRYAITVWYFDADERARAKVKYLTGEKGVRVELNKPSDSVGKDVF

| SMILES | IC50 [2] [nM] | also measured |
| --- | --- | --- |
| COc1ncc(-c2ccc3c(O)c(C(=O)NCC(=O)O)c(=O)n4c3c2OCC4c2ccc(C(F)(F)F)cc2)cn1 (stereo not drawn) [Example 137, N-({7-hydroxy-10-(2-methoxypyrimidin-5-yl)-5-oxo-3-[4-(trifluoromethyl)phenyl]-2,3-dihydro-5H-[1,4]oxazino[2,3,4-ij]quinolin-6-yl}carbonyl)glycine] | – | IC50 [1]: 14 nM |
| O=C(O)CNC(=O)c1c(O)c2c(OC(F)(F)F)ccc3c2n(c1=O)CC(c1ccc(C(F)(F)F)cc1)O3 (single isomer, unassigned) [Example 87, 2-(7-hydroxy-5-oxo-8-(trifluoromethoxy)-2-(4-(trifluoromethyl)phenyl)-3,5-dihydro-2H-[1,4]oxazino[2,3,4-ij]quinoline-6-carboxamido)acetic acid] | – | IC50 [1]: 17 nM |
| O=C(O)CNC(=O)c1c(O)c2ccc(Cl)c3c2n(c1=O)C(c1ccc(C(F)(F)F)cc1)CO3 (stereo not drawn) [Example 165, 2-(10-chloro-7-hydroxy-5-oxo-3-(4-(trifluoromethyl)phenyl)-3,5-dihydro-2H-[1,4]oxazino[2,3,4-ij]quinoline-6-carboxamido)acetic acid] | – | IC50 [1]: 19 nM |
| O=C(O)CNC(=O)c1c(O)c2ccc(-c3cncnc3)c3c2n(c1=O)C(c1ccc(C(F)(F)F)cc1)CO3 (stereo not drawn) [Example 138, N-({7-hydroxy-5-oxo-10-pyrimidin-5-yl-3-[4-(trifluoromethyl)phenyl]-2,3-dihydro-5H-[1,4]oxazino[2,3,4-ij]quinolin-6-yl}carbonyl)glycine] | – | IC50 [1]: 12 nM |
| N#Cc1ccc2c3c1c(O)c(C(=O)NCC(=O)O)c(=O)n3CC(c1ccc(C(F)(F)F)cc1)O2 (stereo not drawn) [Example 13, 2-(8-Cyano-7-hydroxy-5-oxo-2-(4-(trifluoromethyl)phenyl)-3,5-dihydro-2H-[1,4]oxazino[2,3,4-ij]quinoline-6-carboxamido)acetic acid] | 1 | – |
| CN1CC(c2ccc(C(F)(F)F)cc2)n2c(=O)c(C(=O)NCC(=O)O)c(O)c3cc(C#N)cc1c32 (stereo not drawn) [Example 95, 2-(9-Cyano-7-hydroxy-1-methyl-5-oxo-3-(4-(trifluoromethyl)phenyl)-1,2,3,5-tetrahydropyrido[1,2,3-de]quinoxaline-6-carboxamido)acetic acid] | 5.5 | – |
| Cc1ccc2c(O)c(C(=O)NCC(=O)O)c(=O)n3c2c1OCC3Cc1ccc(C(F)(F)F)cc1 (stereo not drawn) [Example 33, 2-(7-Hydroxy-10-methyl-5-oxo-3-(4-(trifluoromethyl)benzyl)-3,5-dihydro-2H-[1,4]oxazino[2,3,4-ij]quinoline-6-carboxamido)acetic acid] | 17 | – |
| O=C(O)CNC(=O)c1c(O)c2ccc(F)c3c2n(c1=O)C(c1cncs1)CO3 (stereo not drawn) [Example 174, 2-(10-fluoro-7-hydroxy-5-oxo-3-(thiazol-5-yl)-3,5-dihydro-2H-[1,4]oxazino[2,3,4-ij]quinoline-6-carboxamido)acetic acid] | – | IC50 [1]: 3.8 nM |
| O=C(O)CNC(=O)c1c(O)c2c(O)ccc3c2n(c1=O)CC(c1ccc(C(F)(F)F)cc1)O3 (stereo not drawn) [Example 80, 2-(7,8-dihydroxy-5-oxo-2-(4-(trifluoromethyl)phenyl)-3,5-dihydro-2H-[1,4]oxazino[2,3,4-ij]quinoline-6-carboxamido)acetic acid] | 12 | – |
| N#Cc1ccc(C2Cn3c(=O)c(C(=O)NCC(=O)O)c(O)c4c(C#N)ccc(c43)O2)cc1 (stereo not drawn) [Example 54, 2-(8-Cyano-2-(4-cyanophenyl)-7-hydroxy-5-oxo-3,5-dihydro-2H-[1,4]oxazino[2,3,4-ij]quinoline-6-carboxamido)acetic acid] | 1.1 | – |
| N#Cc1ccc2c3c1c(O)c(C(=O)NCC(=O)O)c(=O)n3CC(c1ccc(C(F)(F)F)cc1)S2 (stereo not drawn) [Example 97, 2-(8-Cyano-7-hydroxy-5-oxo-2-(4-(trifluoromethyl)phenyl)-3,5-dihydro-2H-[1,4]thiazino[2,3,4-ij]quinoline-6-carboxamido)acetic acid] | 1.5 | – |
| O=C(O)CNC(=O)c1c(O)c2c(OC(F)(F)F)ccc3c2n(c1=O)CC(c1ccc(C(F)(F)F)cc1)O3 (single isomer, unassigned) [Example 86, 2-(7-Hydroxy-5-oxo-8-(trifluoromethoxy)-2-(4-(trifluoromethyl)phenyl)-3,5-dihydro-2H-[1,4]oxazino[2,3,4-ij]quinoline-6-carboxamido)acetic acid] | 14 | – |
| O=C(O)CNC(=O)c1c(O)c2cc(Br)cc3c2n(c1=O)CCC3 [Example 47, 2-(9-Bromo-1-hydroxy-3-oxo-3,5,6,7-tetrahydropyrido[3,2,1-ij]quinoline-2-carboxamido)acetic acid] | – | IC50 (Human HIF-PHD2 IC50, FLAG-tagged full length PHD2): 99 nM |

The next lines start with results.

| IC50 [2] [nM] | SMILES | also measured |
| --- | --- | --- |
| 2.6 | N#Cc1cc2c3c(c1)c(O)c(C(=O)NCC(=O)O)c(=O)n3CCC2 [Example 48, 2-(9-Cyano-1-hydroxy-3-oxo-3,5,6,7-tetrahydropyrido[3,2,1-ij]quinoline-2-carboxamido)acetic acid] | – |
| 8.8 | O=C(O)CNC(=O)c1c(O)c2ccc(F)c3c2n(c1=O)CC(c1ccc(C(F)(F)F)cc1)N3 (stereo not drawn) [Example 116, 2-(10-Fluoro-7-hydroxy-5-oxo-2-(4-(trifluoromethyl)phenyl)-1,2,3,5-tetrahydropyrido[1,2,3-de]quinoxaline-6-carboxamido)acetic acid] | – |
| 6.4 | O=C(O)CNC(=O)c1c(O)c2cccc3c2n(c1=O)CC(c1ccc(C(F)(F)F)cc1)O3 (stereo not drawn) [Example 10, 2-(7-Hydroxy-5-oxo-2-(4-(trifluoromethyl)phenyl)-3,5-dihydro-2H-[1,4]oxazino[2,3,4-ij]quinoline-6-carboxamido)acetic acid] | – |
| 8.3 | O=C(O)CNC(=O)c1c(O)c2cccc3c2n(c1=O)CC(c1cncs1)C3 (single isomer, unassigned) [Example 50b, 2-(1-Hydroxy-3-oxo-6-(thiazol-5-yl)-3,5,6,7-tetrahydropyrido[3,2,1-ij]quinoline-2-carboxamido)acetic acid] | – |
| 0.5 | N#Cc1ccc2c(O)c(C(=O)NCC(=O)O)c(=O)n3c2c1OC(c1ccc(C(F)(F)F)cc1)C3 (single isomer, unassigned) [Example 20, 2-(10-Cyano-7-hydroxy-5-oxo-2-(4-(trifluoromethyl)phenyl)-3,5-dihydro-2H-[1,4]oxazino[2,3,4-ij]quinoline-6-carboxamido)acetic acid] | – |
| 0.9 | N#Cc1ccc2c(O)c(C(=O)NCC(=O)O)c(=O)n3c2c1CCC3 [Example 44, 2-(8-Cyano-1-hydroxy-3-oxo-3,5,6,7-tetrahydropyrido[3,2,1-ij]quinoline-2-carboxamido)acetic acid] | – |
| 3.6 | O=C(O)CNC(=O)c1c(O)c2cccc3c2n(c1=O)C(c1ccc(C(F)(F)F)nc1)CN3 (stereo not drawn) [Example 127, 2-(7-Hydroxy-5-oxo-3-(6-(trifluoromethyl)pyridin-3-yl)-1,2,3,5-tetrahydropyrido[1,2,3-de]quinoxaline-6-carboxamido)acetic acid] | – |
| 15 | O=C(O)CNC(=O)c1c(O)c2cccc3c2n(c1=O)C(Cc1ccc(Cl)cc1)CC3 (racemic) [Example 131, 2-(5-(4-Chlorobenzyl)-1-hydroxy-3-oxo-3,5,6,7-tetrahydropyrido[3,2,1-ij]quinoline-2-carboxamido)acetic acid] | – |
| 8.6 | O=C(O)CNC(=O)c1c(O)c2cccc3c2n(c1=O)C(c1ccc(C(F)(F)F)cc1)CS3(=O)=O (stereo not drawn) [Example 101, 2-(7-hydroxy-1,1-dioxido-5-oxo-3-(4-(trifluoromethyl)phenyl)-3,5-dihydro-2H-[1,4]thiazino[2,3,4-ij]quinoline-6-carboxamido)acetic acid] | – |
| 68 | CN1CC(c2ccc(C(F)(F)F)cc2)n2c(=O)c(C(=O)NCC(=O)O)c(O)c3cccc1c32 (stereo not drawn) [Example 107, 2-(7-Hydroxy-1-methyl-5-oxo-3-(4-(trifluoromethyl)phenyl)-1,2,3,5-tetrahydropyrido[1,2,3-de]quinoxaline-6-carboxamido)acetic acid] | – |
| 2.6 | O=C(O)CNC(=O)c1c(O)c2ccc(Cl)c3c2n(c1=O)CC(c1ccc(C(F)(F)F)cc1)O3 (single isomer, unassigned) [Example 72, 2-(10-Chloro-7-hydroxy-5-oxo-2-(4-(trifluoromethyl)phenyl)-3,5-dihydro-2H-[1,4]oxazino[2,3,4-ij]quinoline-6-carboxamido)acetic acid] | – |
| 34 | CN1c2cccc3c(O)c(C(=O)NCC(=O)O)c(=O)n(c23)CC1c1ccc(C(F)(F)F)cc1 (stereo not drawn) [Example 65, 2-(7-Hydroxy-1-methyl-5-oxo-2-(4-(trifluoromethyl)phenyl)-1,2,3,5-tetrahydropyrido[1,2,3-de]quinoxaline-6-carboxamido)acetic acid] | – |
| 5 | O=C(O)CNC(=O)c1c(O)c2cccc3c2n(c1=O)CC(c1ccc(C(F)(F)F)nc1)C3 (stereo not drawn) [Example 83, 2-(1-Hydroxy-3-oxo-6-(6-(trifluoromethyl)pyridin-3-yl)-3,5,6,7-tetrahydropyrido[3,2,1-ij]quinoline-2-carboxamido)acetic acid] | – |
| 2.7 | O=C(O)CNC(=O)c1c(O)c2cc(O)cc3c2n(c1=O)CC(c1ccc(C(F)(F)F)cc1)O3 (stereo not drawn) [Example 82, 2-(7,9-Dihydroxy-5-oxo-2-(4-(trifluoromethyl)phenyl)-3,5-dihydro-2H-[1,4]oxazino[2,3,4-ij]quinoline-6-carboxamido)acetic acid] | – |
